Among the data in ChEMBL document CHEMBL1129208, “Synthesis and activity of 2,6,9-trisubstituted purines” (Bioorg Med Chem Lett, 1997) are IC50 values, retold here.

Structures are written as SMILES. Where “and” joins values, the source holds several entries; their conditions need not be identical. Identical values can stand only once.

The target of this test is Cyclin-dependent kinase 2/cyclin E (Homo sapiens, UniProt P24941). As to the kind of experiment: Inhibitory concentration against cyclin dependent kinase-2 (CDK2)/Cyclin E. It counts as protein-complex assay.
For `COc1ccc(CNc2nc(C3CC[C@@H](Cc4ccccc4N)N3)nc3c2ncn3C(C)C)cc1` (some centres not stated), the IC50 (in general, the concentration at which inhibition is half-maximal) was > 5 µM.

For `COc1ccc(CNc2nc(N(CCO)Cc3ccccc3)nc3c2ncn3C(C)C)cc1`, the IC50 was 1 µM.

In the case of `COc1ccc(CNc2nc(N(CCO)CCO)nc3c2ncn3CCO)cc1`, the IC50 came out at 1 µM.

Regarding `COc1ccc(CNc2nc(Cl)nc3c2ncn3C)cc1`, the IC50 is 4 µM and 0.7 µM.

Take `CC(C)n1cnc2c(NCc3ccc(-c4ccccc4)cc3)nc(NCC(O)CO)nc21` (configuration not stated): it took 0.6 µM to reach half-maximal inhibition (IC50).

Take `CCn1cnc2c(NCCc3ccccc3)nc(Cl)nc21`: the IC50 was > 5 µM.

Turning to `CC(O)Nc1nc(NCc2ccc(-c3ccccc3)cc2)c2ncn(C(C)C)c2n1` (configuration not stated), the IC50 came to 3 µM.

As for `O=C1c2ccccc2C(=O)N1CCNc1nc(Cl)nc2nc[nH]c12`, the IC50 was > 5 µM.

Consider `Cn1cnc2c(NCCc3ccccc3)nc(Cl)nc21`, for which the IC50 was > 5 µM.

With `COCCN(CCOC)c1nc(NCc2ccc(-c3ccccc3)cc2)c2ncn(C(C)C)c2n1`, half-maximal inhibition (IC50) was put at 5 µM. This lies in the single-digit micromolar range.

Regarding `COCCCNc1nc(Cl)nc2c1ncn2C`, the IC50 was > 5 µM.

Take `Clc1nc(NCc2ccccc2)c2[nH]cnc2n1`: the 50% inhibitory concentration (IC50) was > 5 µM.

Turning to `COc1ccc(CNc2nc(N(Cc3cccnc3)CC(C)C#N)nc3c2ncn3C(C)C)cc1` (configuration not stated), the IC50 worked out at 1 µM.

Take `Cn1cnc2c(NC3CCCC3)nc(Cl)nc21`: the IC50 is > 5 µM.

In the case of `CN(Cc1ccc(C(=O)O)cc1)c1[nH]c(Cl)nc2ncnc1-2`, the IC50 is > 5 µM.

With `CCCn1cnc2c(NCCCCCCO)nc(Cl)nc21`, the IC50 is > 5 µM.

`COc1ccc(CNc2nc(N(C)CC(O)c3ccc(O)c(O)c3)nc3c2ncn3C(C)C)cc1` (configuration not stated) displayed an IC50 of 3 µM.

With `COc1ccc(CNc2nc(NCCO)nc3c2ncn3C(C)C)cc1`, the IC50 turned out to be 1.5 µM. This IC50 is about 2-fold lower than that of the compound before.

Compound `CCC(C)Cn1cnc2c(NCc3ccc(OC)cc3)nc(N(CCO)CCO)nc21` (configuration not stated) registered an IC50 of 2 µM. This IC50 and that of the compound before are within 1.5-fold of each other.

In turn, `COc1ccc(CNc2nc(NCCO)nc3c2ncn3C)cc1` gave an IC50 of 2.5 µM. This IC50 and that of the compound before are within 1.5-fold of each other.

In the case of `CC(C)Cn1cnc2c(N(C)c3cccnc3)nc(Cl)nc21`, the IC50 is > 5 µM.

`CC(C)n1cnc2c(NCc3ccc(C4=CC(=S)CC=C4)cc3)nc(N(CCO)CCO)nc21`: the IC50 is > 5 µM.

`COc1ccc(CNc2nc(NC(C)(O)CO)nc3c2ncn3C(C)C)cc1` (configuration not stated) gave an IC50 of 0.5 µM.

For the compound `CC(C)n1cnc2c(NCc3ccc(-c4ccccc4)cc3)nc(NCc3ccco3)nc21`, the IC50 is > 5 µM.

Take `C=CCN(CC=C)c1nc(NCc2ccc(OC)cc2)c2ncn(C(C)C)c2n1`: the IC50 was > 5 µM.

Turning to `Cn1cnc2c(NCc3ccncc3)nc(Cl)nc21`, the IC50 is > 5 µM.

In turn, `CC(C)n1cnc2c(NCc3ccc4c(c3)OCO4)nc(N(CCO)CCO)nc21` yielded an IC50 of 0.8 µM. That is a sub-micromolar value.

On to `COc1ccc(CNc2nc(N(CCO)CCO)nc3c2ncn3CC(C)C)cc1`, for which the IC50 was 2 µM. Compared with the last compound, the IC50 is about 2.5-fold higher.

Compound `COc1ccc(CNc2nc(NCC(O)CO)nc3c2ncn3C(C)C)cc1` (configuration not stated) came in with an IC50 of 2 µM.

Take `COc1ccc(CNc2nc(Cl)nc3c2ncn3Cc2ccc(-c3ccccc3)cc2)cc1`: the IC50 is > 5 µM.

For the compound `COc1ccc(CNc2nc(N(CCO)CCO)nc3c2ncn3Cc2ccc([N+](=O)[O-])cc2)cc1`, 2 µM corresponded to half-maximal inhibition (IC50).

Consider `CC(C)n1cnc2c(NCc3ccc(Br)cc3)nc(N(CCO)CCO)nc21`, for which the midpoint of inhibition, the IC50, lay at 2 µM.

Turning to `Cn1cnc2c(NCCCCCCO)nc(Cl)nc21`, the IC50 was > 5 µM.

In the case of `COc1ccc(CNc2nc(N(CCO)CCO)nc3c2ncn3CC(O)CO)cc1` (configuration not stated), the IC50 was > 5 µM.

`CC(C)n1cnc2c(NCc3ccc(-c4cccs4)cc3)nc(N(CCO)CCO)nc21` displayed a 50% inhibitory concentration (IC50) of 0.6 µM.

The compound `CC(C)n1cnc2c(Nc3ccc(Br)cc3)nc(N(CCO)CCO)nc21` registered an IC50 of 1 µM.

On to `COc1ccc(CNc2nc(N(CCO)CCO)nc3c2ncn3C2CCCC2)cc1`, for which the IC50 was determined as 2 µM.

Compound `CCCCc1ccc(CNc2nc(N(CCO)CCO)nc3c2ncn3C(C)C)cc1` showed an IC50 of 2 µM. This counts as single-digit micromolar.

As for `CC(C)n1cnc2c(NC3Cc4ccccc4C3)nc(N(CCO)CCO)nc21`, the IC50 is > 5 µM.

Compound `COc1ccc(CNc2nc(N(CCO)CCO)nc3c2ncn3Cc2ccc3ccccc3c2)cc1` registered an IC50 of 5 µM.

`COc1ccc(CNc2nc(NC3CCCCC3O)nc3c2ncn3C(C)C)cc1` (configuration not stated): the IC50 was determined as 1 µM.

`CC(C)n1cnc2c(Nc3nc4ccccc4s3)nc(Cl)nc21`: the IC50 is > 5 µM.

For `FC(F)(F)n1cnc2c(NCc3ccc(Cl)cc3)nc(Cl)nc21`, it took 1 µM to reach half-maximal inhibition (IC50).

`CC(C)n1cnc2c(Nc3ccc(-c4ccccc4)cc3)nc(N(CCO)CCO)nc21` had an IC50 of 0.6 µM.

For `Cn1cnc2c(Nc3nc4ccccc4s3)nc(Cl)nc21`, the IC50 is > 5 µM.

In turn, `COc1ccc(CNc2nc(N3CCCCC3CO)nc3c2ncn3C(C)C)cc1` (configuration not stated) yielded an IC50 of 4 µM. This counts as single-digit micromolar.

For the compound `CC(C)n1cnc2c(Nc3cnc4ccccc4c3)nc(N(CCO)CCO)nc21`, it took 2 µM to reach half-maximal inhibition (IC50).

For `Cn1cnc2c(NCc3cccnc3)nc(Cl)nc21`, the IC50 is > 5 µM.

Regarding `CC(C)n1cnc2c(NCCCc3ccccc3)nc(N(CCO)CCO)nc21`, the IC50 was > 5 µM.

Turning to `CC(C)n1cnc2c(NCc3ccc(-c4ccccc4)cc3)nc(N(CCO)CCO)nc21`, half-maximal inhibition (IC50) was put at 1 µM.

As to `CC(C)n1cnc2c(Nc3cccc4cccnc34)nc(N(CCO)CCO)nc21`, the IC50 is > 5 µM.

On to `COc1ccc(CNc2nc(NCCN)nc3c2ncn3C(C)C)cc1`, for which the IC50 was > 5 µM.

Take `COc1ccc(CNc2nc(N3CCC(O)C3)nc3c2ncn3C(C)C)cc1` (configuration not stated): the IC50 was > 5 µM.

For `COc1ccc(CNc2nc(NCCc3c[nH]c4ccccc34)nc3c2ncn3C(C)C)cc1`, the IC50 was found to be 2 µM.

Consider `COCCNc1nc(Cl)nc2c1ncn2C`, for which the IC50 is > 5 µM.

Take `COc1ccc(CNc2nc(N(CCO)CCO)nc3c2ncn3Cc2ccccc2-c2ccccc2)cc1`: the concentration for half-maximal inhibition (IC50) was > 5 µM.

`CC(C)n1cnc2c(Nc3ccc(Br)cc3)nc(Nc3ccc(Br)cc3)nc21` yielded an IC50 of 5 µM.

Turning to `CC(C)n1cnc2c(Nc3ccccc3)nc(N(CCO)CCO)nc21`, the IC50 amounted to 2 µM. This IC50 lies about 2.5-fold lower than the previous one.

For `COc1ccc(CNc2nc(N(C)CC(O)c3ccccc3)nc3c2ncn3C(C)C)cc1` (configuration not stated), the IC50 was > 5 µM.

Take `N#CCCCNc1nc(Cl)nc2nc[nH]c12`: the IC50 was > 5 µM.

As to `ClCCCCNc1[nH]c(Cl)nc2ncnc1-2`, the IC50 was > 5 µM.

On to `COc1ccc(CNc2nc(N3CCC(O)CC3)nc3c2ncn3C(C)C)cc1`, for which the midpoint of inhibition, the IC50, lay at 2 µM.

As to `CC(C)n1cnc2c(N(C)Cc3ccc(-c4ccccc4)cc3)nc(Cl)nc21`, the IC50 was > 5 µM.

Take `CC(C)(C)OC(=O)Cn1cnc2c(NCc3ccc(-c4ccccc4)cc3)nc(N(CCO)CCO)nc21`: the midpoint of inhibition, the IC50, lay at 5 µM.

In turn, `CC(C)n1cnc2c(N(C)C3CC3)nc(N(CCO)CCO)nc21` registered an IC50 of 2 µM.

Regarding `Cn1cnc2c(NC3CCN(Cc4ccccc4)CC3)nc(Cl)nc21`, the IC50 was > 5 µM.

Consider `COc1ccc(CNc2nc(N(CCO)CCO)nc3c2ncn3Cc2cccc([N+](=O)[O-])c2)cc1`, for which the IC50 was found to be 2 µM.

In the case of `CN(c1ccncc1)c1nc(Cl)nc2c1ncn2C1CCCC1`, the IC50 is > 5 µM.

Compound `COc1ccc(CNc2nc(N3CCCC3)nc3c2ncn3C(C)C)cc1` had an IC50 of 5 µM.

The compound `COc1ccc(CNc2nc(NC(O)CN)nc3c2ncn3C(C)C)cc1` (configuration not stated) had an IC50 of 1 µM.

`CCCCCCCC/C=C\CCCCCCCCn1cnc2c(NCc3ccc(OC)cc3)nc(N(CCO)CCO)nc21` gave a half-maximal inhibitory concentration (IC50) of 3 µM.

On to `Cn1cnc2c(NC(C)(C)CO)nc(Cl)nc21`, for which the IC50 was > 5 µM.
